Patent publication US20250368668A1, “CRYSTALLINE FORMS AND SALT FORMS OF A CARDIAC P2X RECEPTOR AGONIST, PHARMACEUTICAL COMPOSITIONS, AND THEIR USE IN TREATING MEDICAL DISORDERS” (Cornovus Pharmaceuticals, Inc., priority 2024, published 2025)

Key:
Type in all cases: physicochemical
[1] = Solubility in water of sodium salts of Compound I; conditions: read-out: Aqueous Solubility of Sodium Salt Form of Compound I
Procedure: Sodium salts of Compound I described herein above were tested for solubility in water.

[2] = Solid-state stability of crystalline form on storage (form checked by X-ray powder diffraction); conditions: for crystalline form after extended storage: X-ray powder diffraction
Procedure: A sample of Form A crystalline hydrate of Compound I was subjected to stability analysis for 1 week at a temperature of 25° C. at 60% relative humidity.
Stability of Form B crystalline hydrate of compound I to extended storage was evaluated by storing samples of Form B crystalline hydrate of compound I for twelve months at either 5° C. or 25° C., and then subjecting samples of the stored material to X-ray powder diffraction analytical analysis.

[3] = Hygroscopicity by dynamic vapor sorption
Procedure: Form A crystalline hydrate of compound I was analyzed by X-ray powder diffraction, thermogravimetric analysis, dynamic vapor sorption (to analyze hygroscopicity), and Karl Fischer titration.
The title compound was analyzed for hygroscopicity by dynamic vapor sorption.

SMILES: Nc1nc(Cl)nc2c1ncn2[C@H]1[C@H](O)[C@H](O)[C@]2(COP(=O)(O)O)C[C@H]12 [Compound I, ((1R,2R,3S,4R,5S)-4-(6-amino-2-chloro-9H-purin-9-yl)-2,3-dihydroxybicyclo[3.1.0]hexan-1-yl)methyl dihydrogen phosphate]
- solubility [1]: 3000 µg/mL

SMILES: Nc1nc(Cl)nc2c1ncn2[C@H]1[C@H](O)[C@H](O)[C@]2(COP(=O)(O)O)C[C@H]12 [Form A crystalline hydrate of Compound I]
- crystalline form at the end of the stability study ([2]; 1 week, 25° C., 60% relative humidity): converted to Form B crystalline hydrate of Compound I
- increase in weight during the absorption step ([3]; absorption step, FIG. 3, in %): 5.2100
- weight loss during the desorption step ([3]; desorption step, FIG. 3): 5.16%

SMILES: Nc1nc(Cl)nc2c1ncn2[C@H]1[C@H](O)[C@H](O)[C@]2(COP(=O)(O)O)C[C@H]12 [Form B crystalline hydrate of compound I]
- relative stability of crystalline forms ([2]; comparison with Form A hydrate and crystalline sodium salt forms): more stable than Form A of crystalline hydrate of compound I and more stable than the crystalline sodium salt forms of compound I
- crystalline form after extended storage ([2]; twelve months at 5° C.): remain as Form B crystalline hydrate of compound I
- crystalline form after extended storage ([2]; twelve months at 25° C.): remain as Form B crystalline hydrate of compound I
